Where a chain is given by its changes, count along the chain named. Like-named read-outs stand apart in the source and are kept apart here.
How the values were obtained:
Assay in all cases: [3H]glycine transport by GlyT2 mutant in COS7 cells
Type in all cases: cell-based
[1] = target: T1, GlyT2 F478Y mutant (Rattus norvegicus, UniProt P58295, F478Y)
T1 construct: expressed in transfected cells; host or cells: COS7
T1 sequence (P58295 1-799 F478Y): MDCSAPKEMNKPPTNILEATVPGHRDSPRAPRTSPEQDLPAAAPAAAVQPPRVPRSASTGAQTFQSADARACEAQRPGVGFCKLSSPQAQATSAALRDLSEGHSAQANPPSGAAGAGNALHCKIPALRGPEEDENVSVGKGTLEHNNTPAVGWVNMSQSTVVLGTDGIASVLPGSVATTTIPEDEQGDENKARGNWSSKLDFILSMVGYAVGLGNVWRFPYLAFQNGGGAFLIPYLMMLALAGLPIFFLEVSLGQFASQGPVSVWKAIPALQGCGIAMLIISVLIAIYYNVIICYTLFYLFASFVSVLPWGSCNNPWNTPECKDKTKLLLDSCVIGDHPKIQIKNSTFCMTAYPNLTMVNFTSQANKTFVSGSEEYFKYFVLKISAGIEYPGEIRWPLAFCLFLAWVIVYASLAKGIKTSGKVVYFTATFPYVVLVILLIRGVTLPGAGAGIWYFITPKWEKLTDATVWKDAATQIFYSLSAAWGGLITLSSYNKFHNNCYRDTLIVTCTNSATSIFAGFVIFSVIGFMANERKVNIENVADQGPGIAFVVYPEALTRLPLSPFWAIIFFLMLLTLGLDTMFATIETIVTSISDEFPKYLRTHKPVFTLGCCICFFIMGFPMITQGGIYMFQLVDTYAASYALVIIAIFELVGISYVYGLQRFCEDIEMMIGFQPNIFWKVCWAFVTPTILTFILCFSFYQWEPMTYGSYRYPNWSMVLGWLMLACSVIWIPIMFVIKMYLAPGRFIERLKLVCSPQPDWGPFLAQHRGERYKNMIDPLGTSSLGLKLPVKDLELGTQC
Description: (§1) To validate the predicted interactions between the inhibitors and GlyT2, we used systematic site-directed mutagenesis to construct substitution mutants of the potential residues involved in ligand binding. […] The GlyT2 residues predicted to interact with the inhibitors through its side chain were replaced by amino acids expected to force the loss of the interaction. In the cases where the interaction occurred through the backbone, the inserted amino acid sought to alter the disposition of the substituted residue to lose the coordination.
(§2) Substitution mutants were generated with the QuikChange II Site-Directed Mutagenesis kit (Agilent Technologies, Santa Clara, CA, USA), using rGlyT2 or rGlyT1 subcloned in pCDNA3.[47] The complete coding region of all of the constructs was sequenced to verify that only the desired mutation had been introduced. […] COS7 cells were grown and transfected using Turbofect Transfection Reagent (Thermo Fisher Scientific, Waltham, MA, USA), following the manufacturer’s protocol (2 μL reagent/μg of DNA). Cells were incubated for 48 h at 37 °C until used.
(§3) At the end of the desired time (usually 10 min), reactions were washed and terminated by aspiration. […] A nonlinear curve fitting method was used to obtain IC50 values using Graphpad Prism software, version 6.0, Graphpad, San Diego, CA, USA.

[2] = target: T2, GlyT2 A639C mutant (Rattus norvegicus, UniProt P58295, A639C)
T2 construct: expressed in transfected cells; host or cells: COS7
T2 sequence (P58295 1-799 A639C): T1 sequence (P58295 1-799 F478Y) with Y478F, A639C
Description: as §1, §2, §3

[3] = target: T3, GlyT2 A210C mutant (Rattus norvegicus, UniProt P58295, A210C)
T3 construct: expressed in transfected cells; host or cells: COS7
T3 sequence (P58295 1-799 A210C): T1 sequence (P58295 1-799 F478Y) with A210C, Y478F
Description: as §1, §2, §3

SMILES | IC50 ([1]; read-out: IC50 (Table S1)) | IC50 ([2]; read-out: IC50 (Table S1)) | IC50 ([3]; read-out: IC50 (Table S1)) | IC50 [1] | IC50 [2] | IC50 [3]
N[C@@H](COC(c1cccc(F)c1)c1ccccc1OCc1ccccc1)C(=O)O (stereo partly drawn) [ALX1393] | 0.05 ± 0.005 µM | 0.022 ± 0.004 µM | 0.023 ± 0.003 µM |  |  | 
COc1cc(C(=O)NCC2(N(C)C)CCCC2)cc(OC)c1OCc1ccccc1 [ORG25543, N-[[1-(dimethylamino)cyclopentyl]methyl]-3,5-dimethoxy-4-(phenylmethoxy)benzamide] |  |  |  | 0.019 ± 0.007 µM | 0.051 ± 0.002 µM | 0.02 ± 0.012 µM

Source: publication PMC8691691 (ACS Chemical Neuroscience, 2021)
